According to PubChem BioAssay AID180 (DTP/NCI, 2004):
“And” between values parts separate entries of the source, which are not always exact repeats. Equal values may be shown once.

Tested on: BDF1 mice, Adenocarcinoma 755 s.c., tumor weight T/C
Test: NCI In Vivo Anticancer Drug Screen. Data for tumor model Adenocarcinoma 755 (subcutaneous) in B6D2F1 (BDF1) mice
Details: endpoint: mean tumor weight, higher = larger tumour
Summary of the method: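 Readout: T/C, i.e. treated-group measurement over vehicle-control measurement. Endpoint is survival or tumor size in tumor-bearing mice given compound.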

[1] = dose: 60.0 mg/kg/injection, schedule: Q01DX011 (ip), vehicle: carboxymethylcellulose (CMC)

Which results are given for `CS(=O)(=O)OCCC(=O)N1CCN(C(=O)CCOS(C)(=O)=O)CC1`?
T/C (dose: 9.4 mg/kg/injection, schedule: Q01DX011 (ip), vehicle: methylcellulose (MC)): 73 % of control; T/C (dose: 22.0 mg/kg/injection, schedule: Q01DX011 (ip), vehicle: methylcellulose (MC)): 24 % of control and 45 % of control; T/C (dose: 37.5 mg/kg/injection, schedule: Q01DX011 (ip), vehicle: methylcellulose (MC)): 15 % of control; T/C (dose: 44.0 mg/kg/injection, schedule: Q01DX011 (ip), vehicle: methylcellulose (MC)): 9 % of control and 18 % of control; T/C (dose: 88.0 mg/kg/injection, schedule: Q01DX011 (ip), vehicle: methylcellulose (MC)): 3 % of control and 6 % of control

Which T/C (dose: 7.5 mg/kg/injection, schedule: Q01DX011 (ip), vehicle: carboxymethylcellulose (CMC)) does the source give for `Cn1c(Cl)nc2nc(Cl)nc(Cl)c21` here?
Its T/C is 110 % of control.

With `Cn1c(=O)c2cc[nH]c2n(C)c1=O` as the compound, how does the T/C (dose: 30.0 mg/kg/injection, schedule: Q01DX011 (ip), vehicle: carboxymethylcellulose (CMC)) read?
Its T/C is 87 % of control.

And the T/C [1]?
Its T/C is 100 % of control.

Which T/C (dose: 6.25 mg/kg/injection, schedule: Q01DX011 (ip), vehicle: methylcellulose (MC)) does the source give for `CC(C)Cn1cnc2c(SCc3cccc(F)c3)nc(N)nc21` here?
Its T/C is 75 % of control.

What about the T/C (dose: 12.5 mg/kg/injection, schedule: Q01DX011 (ip), vehicle: methylcellulose (MC)) of the same compound?
Its T/C is 55 % of control.

And the T/C (dose: 25.0 mg/kg/injection, schedule: Q01DX011 (ip), vehicle: methylcellulose (MC))?
Its T/C is 15 % of control.

And the T/C (dose: 50.0 mg/kg/injection, schedule: Q01DX011 (ip), vehicle: methylcellulose (MC))?
Its T/C is 1 % of control.

What does the source list for `Nc1ccc(C(=O)O)c(O)c1`?
T/C (dose: 37.88 mg/kg/injection, schedule: Q01DX011 (ip), vehicle: carboxymethylcellulose (CMC)): 56 % of control; T/C (dose: 43.25 mg/kg/injection, schedule: Q01DX011 (ip), vehicle: carboxymethylcellulose (CMC)): 55 % of control; T/C (dose: 75.75 mg/kg/injection, schedule: Q01DX011 (ip), vehicle: carboxymethylcellulose (CMC)): 101 % of control; T/C (dose: 86.5 mg/kg/injection, schedule: Q01DX011 (ip), vehicle: carboxymethylcellulose (CMC)): 75 % of control; T/C (dose: 141.17 mg/kg/injection, schedule: Q01DX011 (ip), vehicle: carboxymethylcellulose (CMC)): 157 % of control; T/C (dose: 151.5 mg/kg/injection, schedule: Q01DX011 (ip), vehicle: carboxymethylcellulose (CMC)): 104 % of control; T/C (dose: 173.0 mg/kg/injection, schedule: Q01DX011 (ip), vehicle: carboxymethylcellulose (CMC)): 75 % of control; T/C (dose: 303.0 mg/kg/injection, schedule: Q01DX011 (ip), vehicle: carboxymethylcellulose (CMC)): 71 % of control; T/C (dose: 346.0 mg/kg/injection, schedule: Q01DX011 (ip), vehicle: carboxymethylcellulose (CMC)): 82 % of control

`S=c1nc[nH]c2nc[nH]c12.[Cd]` was tested. Which T/C (dose: 0.4 mg/kg/injection, schedule: Q01DX011 (ip), vehicle: saline) did it give?
Its T/C is 38 % of control.

Which results are given for `COc1cc(-c2ccc(Nc3ccccc3C(=O)O)c(OC)c2)ccc1N`?
T/C (dose: 10.0 mg/kg/injection, schedule: Q01DX011 (ip), vehicle: saline): 108 % of control; T/C (dose: 20.0 mg/kg/injection, schedule: Q01DX011 (ip), vehicle: saline): 36 % of control; T/C (dose: 40.0 mg/kg/injection, schedule: Q01DX011 (ip), vehicle: saline): 39 % of control; T/C (dose: 80.0 mg/kg/injection, schedule: Q01DX011 (ip), vehicle: saline): 17 % of control

Which T/C (dose: 3.75 mg/kg/injection, schedule: Q01DX011 (sc), vehicle: steriod suspending solution) does the source give for `CC(=O)OCC(=O)[C@@]1(O)CC[C@H]2[C@@H]3CCC4=CC(=O)[C@H](C)C[C@]4(C)[C@@]3(F)[C@@H](O)C[C@@]21C` here?
Its T/C is 65 % of control.

And the T/C (dose: 7.5 mg/kg/injection, schedule: Q01DX011 (sc), vehicle: steriod suspending solution)?
Its T/C is 29 % of control.

And the T/C (dose: 15.0 mg/kg/injection, schedule: Q01DX011 (sc), vehicle: steriod suspending solution)?
Its T/C is 20 % of control.

And the T/C (dose: 30.0 mg/kg/injection, schedule: Q01DX011 (sc), vehicle: steriod suspending solution)?
The T/C was 9 % of control.

For `[N-]=[N+]=C1N=CN=C1c1ncn[nH]1`, which T/C (dose: 25.0 mg/kg/injection, schedule: Q01DX011 (ip), vehicle: carboxymethylcellulose (CMC)) is on record?
Its T/C is 103 % of control.

How did the T/C (dose: 125.0 mg/kg/injection, schedule: Q01DX011 (oral), vehicle: methylcellulose (MC)) turn out when `O=c1[nH]cnc2n[nH]nc12` was run?
The T/C was 55 % of control.

And the T/C (dose: 250.0 mg/kg/injection, schedule: Q02DX006 (ip), vehicle: methylcellulose (MC))?
The T/C was 5 % of control.

What about the T/C (dose: 250.0 mg/kg/injection, schedule: Q03DX004 (ip), vehicle: methylcellulose (MC)) of the same compound?
Its T/C is 21 % of control.

With `N/C(=N\O)c1nsnc1N` as the compound, how does the T/C (dose: 50.0 mg/kg/injection, schedule: Q01DX011 (ip), vehicle: carboxymethylcellulose (CMC)) read?
The T/C was 85 % of control.

What about the T/C (dose: 100.0 mg/kg/injection, schedule: Q01DX011 (ip), vehicle: carboxymethylcellulose (CMC)) of the same compound?
Its T/C is 71 % of control.

With `Nc1nc(Br)c2[nH]cnc2n1` as the compound, how does the T/C [1] read?
Its T/C is 1 % of control.

For `CC1CN1P(=O)(N1CCc2ccccc21)N1CC1C` (stereo unspecified), which T/C (dose: 28.0 mg/kg/injection, schedule: Q01DX011 (ip), vehicle: carboxymethylcellulose (CMC)) is on record?
Its T/C is 97 % of control.

What about the T/C (dose: 56.0 mg/kg/injection, schedule: Q01DX011 (ip), vehicle: carboxymethylcellulose (CMC)) of the same compound?
The T/C was 67 % of control.

What about the T/C (dose: 113.0 mg/kg/injection, schedule: Q01DX011 (ip), vehicle: carboxymethylcellulose (CMC)) of the same compound?
The T/C was 41 % of control.

What about the T/C (dose: 226.0 mg/kg/injection, schedule: Q01DX011 (ip), vehicle: carboxymethylcellulose (CMC)) of the same compound?
The T/C was 2 % of control.
